The source of these data is patent US7741311B2, “Composition and method for treating occlusive vascular diseases, nerve regeneration, and wound healing” (priority 2005, dated 2010).

Experiment [1] concerns human dermal micro-vascular endothelial cells (HDMEC). Put plainly: three-dimensional in vitro sprout angiogenesis assay (endothelial cells on gelatin-coated beads in fibrin gel). It is filed as cell-based. The note with it: Ch 2 (10 μg); sub-threshold levels of VEGF and b-FGF; P<0.01. As for the experimental part:
The effect of low molecular weight sulfated saccharides (molecular weight<5000 Dalton) on micro-vascular endothelial cell sprouting (in Vitro 3D Sprout Angiogenesis) is depicted with respect to culture of HDMEC on micro-carrier beads in FIG. 19. 80% confluent HDMEC (Passage 5-10) are mixed with gelatin-coated Cytodex-3 beads with a ratio of 40 cells per bead. If using 24-well plate for the assay, 150-200 beads per well are used. Cells and beads are suspended with 5 ml EBM+15% normal human serum, mixed gently every one hour for first four hours. Then the mixture culture is left in CO2 incubator overnight. The next morning, 10 ml of fresh EBM+15% HS and culture are added for another three hours. Before experiments, the culture of EC-beads is checked. 500 ul of PBS in a well of 24-well plate is added. 100 ul of the EC-bead culture solution is added to the PBS. The number of beads are observed and counted. The concentration of EC-beads is calculated. […]
Culture of HDMEC on micro-carrier beads: 80% confluent HDMEC (Passage 5-10) were mixed with gelatin-coated Cytodex-3 beads with a ratio of 40 cells per bead. […] The number of beads is counted and the concentration of EC-beads is calculated. […]
Growth factors: VEGF (30 ng/ml)+FGF2 (25 ng/ml) CH2: Sulfated Hexasaccharide at 10 ug/ml. […] A quantitative three-dimensional in vitro assay method was utilized to screen compounds for angiogenic activity. […]

Experiment [2] deals with chick chorioallantoic membrane (CAM). Put plainly: neovascularization in the chick chorioallantoic membrane (CAM) model. Particulars: n = 8. Type of experiment: in vivo. How it is done: In vivo neovascularization was examined by the method previously described by Auerbach et al. (Auerbach et al., J. Dev. Biol., 41:391-394 (1974), which is hereby incorporated by reference in its entirety). Ten-day old embryos were purchased from Spafas, Inc. (Preston, Conn.) and were incubated at 37° C. with 55% relative humidity. In the dark with the help of a candling lamp, a small hole was punctured in the shell concealing the air sac with a hypodermic needle. A second hole was punctured in the shell on the broadside of the egg directly over an avascular portion of the embryonic membrane, as observed during candling. […]
CAM tissue directly beneath FGF2-saturated filter disk was resected from embryos treated 48 hours prior with test compound or control. […] Digital images of CAM sections adjacent to filters were collected using a 3-CCD color video camera system (Toshiba America, New York, N.Y.) and analyzed using Image-Pro Plus software (Media Cybernetics, Silver Spring, Md.).
CAM tissue directly beneath FGF2-saturated filter disk was resected from embryos treated 48 h prior with compound or control. […] Digital images of CAM sections adjacent to filters were collected using a 3-CCD color video camera system (Toshiba America, New York, N.Y.) and analyzed with the Image-Pro Plus software (Media Cybernetics, Silver Spring, Md.).

With `COc1cccc(-c2cc(=O)c3ccccc3o2)c1N` [PD9805], in experiment [1], the “blockade of angiogenesis promoted by Ch 2” value was “blocked”. Moreover, the “Mean % Inhibition ± SEM” value in experiment [2] (inhibition of Ch 2 (10 μg) pro-angiogenesis by inhibitor 4.8 μg, P < 0.01) is given as 71 ± 6 %. Further, in experiment [2] (inhibitor 4.8 μg added to PBS + Ch 2 (10 μg)), the “Mean Branch Points ± SEM” value is given as 95 ± 8.
